Assay results taken from PMC7760626, “Screening of Human CYP1A2 and CYP3A4 Inhibitors from Seaweed In Silico and In Vitro” (Marine Drugs, 2020).
Where “and” joins values, the source holds several entries; their conditions need not be identical. Identical values can stand only once. Like-named read-outs stand apart in the source and are kept apart here. Each block holds one molecule with its values, some of them ahead of it.

Legend:
CYP1A2 [1] = target: T1, CYP1A2 (Homo sapiens, UniProt P05177); assay: Vivid CYP1A2 blue screening kit inhibition assay; conditions: 3.125–200 μM; for effect on CYP1A2 activity (in words): in vitro
T1 sequence (P05177 1-516): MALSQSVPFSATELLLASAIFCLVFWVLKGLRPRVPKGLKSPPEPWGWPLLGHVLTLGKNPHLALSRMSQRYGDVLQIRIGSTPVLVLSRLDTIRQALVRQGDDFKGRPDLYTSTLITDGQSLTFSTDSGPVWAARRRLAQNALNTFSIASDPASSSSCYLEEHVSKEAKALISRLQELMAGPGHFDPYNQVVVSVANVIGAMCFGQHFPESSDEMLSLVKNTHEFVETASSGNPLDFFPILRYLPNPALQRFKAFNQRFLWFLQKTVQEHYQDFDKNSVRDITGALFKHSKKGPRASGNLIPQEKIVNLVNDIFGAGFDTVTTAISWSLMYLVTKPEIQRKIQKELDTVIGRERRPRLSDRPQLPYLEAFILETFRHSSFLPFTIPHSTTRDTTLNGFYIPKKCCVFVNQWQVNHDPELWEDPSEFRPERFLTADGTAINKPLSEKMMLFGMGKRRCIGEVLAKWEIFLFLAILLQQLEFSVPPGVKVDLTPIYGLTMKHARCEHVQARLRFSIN
Procedure: (§1) Human CYP1A2 and CYP3A4 activities were determined using the Vivid™ CYP1A2 blue screening kit and Vivid™ CYP3A4 red screening kit according to the manufacturer’s instructions. For the CYP1A2 and CYP3A4 inhibition assay, different concentrations (3.125–200 μM) of test compounds or inhibitors were mixed with a master pre-mix comprising of CYP450 BACULOSOMES® reagent and regeneration system which contained glucose-6-phosphate and glucose-6-phosphate dehydrogenase. The mixture was incubated at room temperature for 10 min. Following incubation, each CYP enzyme-specific substrate (Vivid EOMCC for CYP1A2 and Vivid BOMR for CYP3A4) and NADP^+ were added to start the reaction. The plate was immediately transferred into the fluorescent plate reader and read in 1 min intervals for 60 min at Ex 415 nm/Em 460 nm (CYP1A2) and Ex 550 nm/Em 590 nm (CYP3A4), respectively. […] The plots were made with Graph-Pad Prism software (Graph-Pad, San Diego, CA, USA).

human recombinant CYP3A4 = human recombinant CYP3A4 (Homo sapiens, UniProt P08684); assay: Vivid CYP3A4 red screening kit inhibition assay
Procedure: as §1

CYP1A1 [2] = conditions: read-out: IC50 CYP1A1 enzyme activity; cited from earlier work
CYP1A2 [3] = conditions: read-out: IC50 CYP1A2 enzyme activity; cited from earlier work
CYP3A4 [4] = conditions: read-out: IC50 CYP3A4 enzyme activity; cited from earlier work
CYP1A1 [5] = system: CYP1A1; set-up: method as in PMID 31655123; conditions: cited from earlier work
CYP1A2 [6] = conditions: cited from earlier work
CYP2E1 = conditions: cited from earlier work
CYP2D6 = conditions: cited from earlier work
CYP2C19 = conditions: cited from earlier work
CYP3A4 [7] = conditions: cited from earlier work
[8] = CYP1A2 In Vitro IC50, CYP1A2 BACULOSOMES, substrate Vivid EOMCC, n.i. = no inhibition

Chain of human recombinant CYP3A4 (P08684 whole entry): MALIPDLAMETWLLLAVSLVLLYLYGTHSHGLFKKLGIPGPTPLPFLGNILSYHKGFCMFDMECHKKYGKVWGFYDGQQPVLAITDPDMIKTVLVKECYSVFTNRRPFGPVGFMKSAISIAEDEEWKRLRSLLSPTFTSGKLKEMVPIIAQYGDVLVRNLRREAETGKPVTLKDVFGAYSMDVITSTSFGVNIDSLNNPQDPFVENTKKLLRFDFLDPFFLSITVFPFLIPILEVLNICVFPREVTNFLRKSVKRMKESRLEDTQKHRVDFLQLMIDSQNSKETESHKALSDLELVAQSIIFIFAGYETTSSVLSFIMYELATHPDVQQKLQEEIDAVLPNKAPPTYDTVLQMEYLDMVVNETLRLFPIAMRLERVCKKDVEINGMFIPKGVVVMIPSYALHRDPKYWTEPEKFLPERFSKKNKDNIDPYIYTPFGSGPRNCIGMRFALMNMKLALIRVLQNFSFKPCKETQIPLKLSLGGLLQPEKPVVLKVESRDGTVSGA

IC50 (CYP1A2 [1]; [8]): 30.3 µM
IC50 at 60 min (CYP1A2 [1]; human, recombinant human CYP1A2 (CYP450 BACULOSOMES reagent), probe Vivid EOMCC, CYP1A2 In Vitro IC50, CYP1A2 BACULOSOMES, substrate Vivid EOMCC, n.i. = no inhibition): 30.2 µM
IC50 (human recombinant CYP3A4; CYP3A4 In Vitro IC50, CYP3A4 BACULOSOMES, substrate Vivid BOMR, 3.125–200 μM, n.i. = no inhibition): 24.4 µM
SMILES: CC(=O)O[C@H]1CC(C)(C)C(=C=C/C(C)=C/C=C/C(C)=C/C=C/C=C(C)/C=C/C=C(\C)C(=O)C[C@@]23O[C@]2(C)C[C@@H](O)CC3(C)C)[C@](C)(O)C1 [Fucoxanthin, fucoxanthin]
IC50 (CYP1A1 [2]): 12.5 µM
IC50 (CYP1A2 [3]): 49 µM
IC50 (CYP3A4 [4]): 11 µM

SMILES: COc1ccc([C@@H]2CC(=O)c3c(O)cc(O[C@@H]4O[C@H](CO[C@@H]5O[C@@H](C)[C@H](O)[C@@H](O)[C@H]5O)[C@@H](O)[C@H](O)[C@H]4O)cc3O2)cc1O [Hesperidin, hesperidin]
effect on CYP1A2 activity (in words) (CYP1A2 [1]): did not show any significant effect
effect on CYP1A2 activity (in words) (CYP1A2 [1]; listed as HSP): no significant inhibitory effect
effect on CYP3A4 activity (in words) (human recombinant CYP3A4; in vitro, at high concentrations): slightly inhibited

IC50 (CYP1A2 [1]; [8]): 41.8 µM and 41.9 µM
SMILES: O=c1c(O)c(-c2ccc(O)cc2O)oc2cc(O)cc(O)c12 [Morin, morin hydrate]
IC50 (CYP1A1 [5]): 126 µM

SMILES: O=c1c(O)c(-c2ccc(O)c(O)c2)oc2cc(O)cc(O)c12 [Quercetin, quercetin]
effect on CYP1A2 (in words) (CYP1A2 [6]): did not show any significant effect
effect on CYP2E1 (in words) (CYP2E1): did not show any significant effect
inhibitory effect against CYP2D6 (in words) (CYP2D6): strong inhibitory effect
inhibitory effect against CYP2C19 (in words) (CYP2C19): moderate effect
inhibitory effect against CYP3A4 (in words) (CYP3A4 [7]): moderate effect
